In patent US20150065436A1, “INHIBITING INTERACTION BETWEEN HIF-1ALPHA AND p300/CBP WITH HYDROGEN BOND SURROGATE-BASED HELICES” (UNIVERSITY OF SOUTHERN CALIFORNIA, priority 2013, published 2015):

Tests used:
VEGFA = assay: Real-time qRT-PCR of VEGFA expression in hypoxic HeLa cells; format: cell-based, human; details: for reduction of VEGF expression levels: DFO hypoxia
SLC2A1 (GLUT1) = assay: Real-time qRT-PCR of SLC2A1 (GLUT1) expression in hypoxic HeLa cells; format: cell-based, human; details: hypoxia, dose-dependent (10 and 50 μM tested)

Row | Compound | reduction of VEGF expression levels (VEGFA; 50 μM) | inhibition of SLC2A1 expression (SLC2A1 (GLUT1)) | reduction of VEGF expression levels (VEGFA; 10 μM) | inhibition of VEGF expression under two hypoxia mimetic conditions (VEGFA; DFO and prolonged incubation in an anaerobic pouch)
1 | CC(C)C[C@@H]1NC(=O)[C@H](CCC(=O)O)NC(=O)CCC=CCN([C@@H](C)C(=O)N[C@@H](CCCNC(=N)N)C(=O)N[C@@H](C)C(=O)N[C@@H](C)C(=O)N[C@@H](CC(=O)O)C(=O)N[C@@H](CCC(N)=O)C(N)=O)C1=O [HBS 2, XELA*RAADQ-NH2] | 10% | no activity |  | 
2 | CC(C)C[C@H](NC(=O)[C@H](C)NC(=O)[C@H](CCCNC(=N)N)NC(=O)[C@H](C)N1CC=CCCC(=O)N[C@@H](CCC(=O)O)C(=O)N[C@@H](CC(C)C)C1=O)C(=O)N[C@@H](CC(=O)O)C(=O)N[C@@H](CCC(N)=O)C(N)=O [HBS 1, XELA*RALDQ-NH2] | greater than 60% | 50-60% | 50% | dose-dependent inhibition
